Literature values in patent US20050208134A1, “Biocompatible polymeric beads and use thereof” (priority 2004, published 2005).

Conditions: humans, administered orally

Compound: O=C(CC1NCCCC1O)Cn1cnc2cc(Br)c(Cl)cc2c1=O (stereo not shown) [halofuginone]
- maximum tolerated dose with no adverse effects observed: 1 mg/day
